Assay results from patent US20090075941A1, “TREATING NEOPLASMS” (THE UAB RESEARCH FOUNDATION, priority 2006, published 2009).

Legend:
AC29 cells = test: In vitro growth assay, BrdU incorporation; format: cell-based, mouse; conditions: with p38 inhibitor SB202190 10^−5 M vs inactive control compound, 5 days
Experimental: (§1) In vitro growth assay. […] Briefly, […] were plated onto 96-well plates in 100 μl of normal culture medium. The cells were then treated with the indicated agents for various times. BrdU was added to the wells for the final 24 h and incorporated BrdU was detected with sequential additions of monoclonal mouse anti-BrdU antibody and HRP-conjugated anti-mouse antibody. After addition of the substrate for HRP, intensity of the colored reaction product, which is proportional to the amount of BrdU incorporated into the cells, was read with spectrophotometer at […].

AB12 cells = test: In vitro growth assay, BrdU incorporation; format: cell-based, mouse; conditions: with p38 inhibitor SB202190 10^−5 M vs inactive control compound, 5 days
Experimental: as §1

[1] = test system: unprenylated Rap1A in AB-12 mesothelioma cells; test: Western blot, unprenylated Rap1A (Example 2); format: cell-based, mouse; conditions: AB-12 cells; 24 h
Experimental: (§2) Western blot analysis. Cells were cultured on 6-well plates in normal culture medium until near confluency. The cells were then rinsed with sterile PBS and cultured for further 24 h in serum-tree culture medium, in the presence or absence of the indicated bisphosphonates. Some cultures were also treated with 25 μM geranylgeraniol (cold, all trans), 1.0 μg/ml LPS (Sigma; St. Louis, Mo.) 10 ng/ml IL-1β (R&D Systems; Minneapolis, Minn.) or TNF-α (R&D Systems). To study bisphosphonate effects on connexin-43 expression, the cells were cultured for 24 h in serum-free culture medium in the presence of the indicated bisphosphonates or PBS as a vehicle control. Culture medium was then discarded, the cells were quickly lysed and prepared into Western blot samples, as described in Merrell et al. (2000) Breast Cancer Res. Treat. 81, 231-241. After boiling the supernatants in reducing sodium docedyl sulfate (SDS) sample buffer, equal amounts of protein (˜20-50 μg) were loaded per lane and the samples were electrophoresed on 10% SDS polyacrylamide gel and transferred to a nitrocellulose membrane. To detect, unprenylated Rap1A, the blots were incubated overnight at 4° C. with the antibody SC-1482 (Santa Cruz Technology (San Diego, Calif.)), diluted 1:1000 in Tris-buffered saline, 0.1% (v/v) Tween-20 (TEST), and then with peroxidase-conjugated anti-goat serum (Pierce; Rockford, Ill.), diluted 1:1000 in TBST. Total Rap1 was detected from stripped blots in a similar fashion, with the antibody SC-65 (Santa Cruz Technology). The phosphorylation status of p38 was investigated using anti-phospho-p38 (Cell Signaling; Beverly, Mass.) and after stripping of the membrane, with anti-total p38 antibodies (Cell Signaling), according to the manufacturer's instructions. Expression of connexin-43 was detected with a rabbit anti-connexin-43 antibody (Zymed Laboratories, Inc.; San Francisco, Calif.), diluted 1:1000 in TBST. The protein bands were visualized by chemiluminescence using SuperSignal West Pico ECL kit (Pierce Biotechnology, Inc.; Rockford, Ill.).

[2] = test system: unprenylated Rap1A in MDA-MB-231 breast cancer cells; test: Western blot, unprenylated Rap1A (Example 2); format: cell-based, human; conditions: MDA-MB-231 cells; 24 h
Experimental: as §2

Question: What does the source list for `O=P(O)(O)C(O)(Cc1cccnc1)P(=O)(O)O` [risedronate]?
Answer: BP-induced growth inhibition on inhibition of p38 (AC29 cells): augmented; BP-induced growth inhibition on inhibition of p38 (AB12 cells): augmented; accumulation of unprenylated Rap1A [1]: dose-dependent accumulation; accumulation of unprenylated Rap1A [2]: dose-dependent accumulation
